Data on one substance can be found in US9387221B2, “SDF-1 binding nucleic acids and the use thereof in cancer treatment” (NOXXON Pharma AG, priority 2010, dated 2016).

For the series, the target named is SDF-1 (Homo sapiens, UniProt P48061). The series can be described thus: Inhibition of SDF-1-induced chemotaxis, U937 cells. The series is classed as cell-based. The following applies: 3 nM human SDF-1. Here is the method:
The human T cell leukemia cell line Jurkat, the human leukemic monocyte lymphoma cell line U937, the human pre-B cell leukemia cell line BV-173 and human pre-B ALL cell line Nalm-6 express CXCR4. […] All cells used were obtained from the DSMZ (Braunschweig). All cell lines were cultivated at 37° C. and 5% CO2 in RPMI 1640 medium with Glutamax (Invitrogen, Karlsruhe, Germany) which contains 10% fetal bovine serum, 100 units/ml penicillin and 100 μg/ml streptomycin (Invitrogen, Karlsruhe, Germany). One day before the experiment, cells were seeded in a new T175 flask with a density of 0.3×10^6/ml (Jurkat, U937, BV-173) or 0.75×10^6/ml (Nalm-6), respectively.
For the experiment, cells were centrifuged (5 min at 300 g), resuspended, counted and washed once with 15 ml HBH (Hanks balanced salt solution containing 1 mg/ml bovine serum albumin and 20 mM HEPES; Invitrogen, Karlsruhe, Germany). Then the cells were resuspended at 1.33×10^6/ml (Jurkat, U937, BV-173) or 2.67×10^6/ml (Nalm-6), respectively. […]
For evaluation, fluorescence values were corrected for background fluorescence (no cells in well). Then the difference between experimental conditions with and without SDF-1 was calculated. The value for the sample without Spiegelmer (SDF-1 only) was set 100% and the values for the samples with Spiegelmer were calculated as percent of this. […]

{PEG40k} = 40 kDa polyethylene glycol

SDF-1, sequence (P48061 22-89): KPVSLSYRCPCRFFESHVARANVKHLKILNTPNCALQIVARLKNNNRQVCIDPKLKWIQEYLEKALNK

As to “5′-40 kDa-PEG-GCGUGGUGUGAUCUAGAUGUAUUGGCUGAUCCUAGUCAGGUACGC (5' {PEG40k}, sugars by position and backbone not given here) [NOX-A12]”, the “inhibition of SDF-1 induced chemotaxis” value was “Inhibition”.
